Article PMC5863483, “Low HLA binding of diabetes-associated CD8+ T-cell epitopes is increased by post translational modifications” (BMC Immunology, 2018)
Like-named read-outs stand apart in the source and are kept apart here. Where a SMILES comes first, the peptide text is derived from it. [ ]: non-standard residue; d: D form. Cit = NC(=O)NCCC[C@H](N)C(=O)O

Biological target: HLA-A*02:01 (Homo sapiens, UniProt P04439, D140Y/D185E/D98H/E176V/E277Q/G131W/G231S/I119V/I121R/I166T/I218V/L300P/L318F/N151K/N90K/P208A/P217A/Q86G/Q94H/R138H/R169H/T345S)
Test: HLA-peptide competition binding assay, A*02:01
[1] = post-translationally modified insulin peptide, competition binding assay, a dash indicates IC50 >40,000 nM, read-out: A*02:01 binding (IC50 nM) Modified
[2] = read-out: A*02:01 binding (IC50 nM) Modified
[3] = post-translationally modified insulin-derived peptide, radiolabeled ligand competition, purified MHC, two-day incubation, three or more independent experiments, read-out: A*02:01 binding, Modified

SMILES | IC50 [1] [nM] | other results
CC(C)C[C@H](NC(=O)[C@H](CC(=O)O)NC(=O)[C@H](CCC(=O)O)NC(=O)[C@H](C)NC(=O)[C@H](CCC(=O)O)NC(=O)[C@H](CCCNC(N)=O)NC(=O)[C@H](CCCNC(N)=O)NC(=O)[C@@H](NC(=O)[C@@H](N)CCCCN)[C@@H](C)O)C(=O)O (H-KT[Cit][Cit]EAEDL-OH; N-terminus and C-terminus assumed) | > 40000 | –
CC(C)C[C@H](NC(=O)[C@H](CC(=O)O)NC(=O)[C@H](CCC(=O)O)NC(=O)[C@H](C)NC(=O)[C@H](CCC(=O)O)NC(=O)[C@H](CCCNC(N)=O)NC(=O)[C@H](CCCNC(N)=O)NC(=O)[C@@H](NC(=O)[C@@H](N)CCCCN)[C@@H](C)O)C(=O)N[C@@H](CCC(N)=O)C(=O)O (H-KT[Cit][Cit]EAEDLQ-OH) | – | IC50 [2]: 22300 nM
CC(C)C[C@H](NC(=O)[C@H](C)NC(=O)[C@@H](N)CC(C)C)C(=O)N[C@@H](CCC(=O)O)C(=O)NCC(=O)N[C@@H](CO)C(=O)N[C@@H](CC(C)C)C(=O)N[C@@H](CCC(N)=O)C(=O)N[C@@H](CCCCN)C(=O)N[C@@H](CCCNC(N)=O)C(=O)O (H-LALEGSLQK[Cit]-OH) | – | IC50 [3]: 16400 nM
CC(C)C[C@H](NC(=O)[C@H](CO)NC(=O)CNC(=O)[C@H](CCC(=O)O)NC(=O)[C@@H](N)CC(C)C)C(=O)N[C@@H](CCC(N)=O)C(=O)N[C@@H](CCCCN)C(=O)N[C@@H](CCCNC(N)=O)C(=O)NCC(=O)O (H-LEGSLQK[Cit]G-OH; N-terminus and C-terminus assumed) | > 40000 | –
CC[C@H](C)[C@H](NC(=O)CNC(=O)[C@H](CCCNC(N)=O)NC(=O)[C@H](CCCCN)NC(=O)[C@H](CCC(N)=O)NC(=O)[C@H](CC(C)C)NC(=O)[C@H](CO)NC(=O)CNC(=O)[C@H](CCC(=O)O)NC(=O)[C@@H](N)CC(C)C)C(=O)O (H-LEGSLQK[Cit]GI-OH; N-terminus and C-terminus assumed) | > 40000 | –
CC[C@H](C)[C@H](NC(=O)CNC(=O)[C@H](CCCNC(N)=O)NC(=O)[C@H](CCCCN)NC(=O)[C@H](CCC(N)=O)NC(=O)[C@@H](N)CC(C)C)C(=O)N[C@H](C(=O)N[C@@H](CCC(=O)O)C(=O)N[C@@H](CCC(N)=O)C(=O)O)C(C)C (H-LQK[Cit]GIVEQ-OH; N-terminus and C-terminus assumed) | > 40000 | –
CC[C@H](C)[C@H](NC(=O)CNC(=O)[C@H](CCCNC(N)=O)NC(=O)[C@H](CCCCN)NC(=O)[C@H](CCC(N)=O)NC(=O)[C@@H](N)CC(C)C)C(=O)N[C@H](C(=O)N[C@@H](CCC(=O)O)C(=O)N[C@@H](CCC(N)=O)C(=O)N[C@@H](CS)C(=O)O)C(C)C (H-LQK[Cit]GIVEQC-OH; N-terminus and C-terminus assumed) | > 40000 | –
CC(C)C[C@H](N)C(=O)N[C@H](C(=O)N[C@@H](CS)C(=O)NCC(=O)N[C@@H](CCC(=O)O)C(=O)N[C@@H](CCCNC(N)=O)C(=O)NCC(=O)N[C@@H](Cc1ccccc1)C(=O)N[C@@H](Cc1ccccc1)C(=O)O)C(C)C (H-LVCGE[Cit]GFF-OH; N-terminus and C-terminus assumed) | > 40000 | –
CC(C)C[C@H](N)C(=O)N[C@H](C(=O)N[C@@H](CS)C(=O)NCC(=O)N[C@@H](CCC(=O)O)C(=O)N[C@@H](CCCNC(N)=O)C(=O)NCC(=O)N[C@@H](Cc1ccccc1)C(=O)N[C@@H](Cc1ccccc1)C(=O)N[C@@H](Cc1ccc(O)cc1)C(=O)O)C(C)C (H-LVCGE[Cit]GFFY-OH; N-terminus and C-terminus assumed) | > 40000 | –
CSCC[C@H](NC(=O)[C@H](Cc1c[nH]c2ccccc12)NC(=O)[C@@H](N)CC(C)C)C(=O)N[C@@H](CCCNC(N)=O)C(=O)N[C@@H](CC(C)C)C(=O)N[C@@H](CC(C)C)C(=O)N1CCC[C@H]1C(=O)N[C@@H](CC(C)C)C(=O)N[C@@H](CC(C)C)C(=O)O (H-LWM[Cit]LLPLL-OH) | – | IC50 [2]: 148 nM
CSCC[C@H](NC(=O)[C@H](Cc1c[nH]c2ccccc12)NC(=O)[C@@H](N)CC(C)C)C(=O)N[C@@H](CCCNC(N)=O)C(=O)N[C@@H](CC(C)C)C(=O)N[C@@H](CC(C)C)C(=O)N1CCC[C@H]1C(=O)N[C@@H](CC(C)C)C(=O)N[C@@H](CC(C)C)C(=O)N[C@@H](C)C(=O)O (H-LWM[Cit]LLPLLA-OH) | – | IC50 [3]: 61 nM
CSCC[C@H](NC(=O)[C@H](Cc1c[nH]c2ccccc12)NC(=O)[C@H](CC(C)C)NC(=O)[C@H](C)NC(=O)[C@@H](N)CCSC)C(=O)N[C@@H](CCCNC(N)=O)C(=O)N[C@@H](CC(C)C)C(=O)N[C@@H](CC(C)C)C(=O)N1CCC[C@H]1C(=O)O (H-MALWM[Cit]LLP-OH) | – | IC50 [3]: 2120 nM
CSCC[C@H](NC(=O)[C@H](Cc1c[nH]c2ccccc12)NC(=O)[C@H](CC(C)C)NC(=O)[C@H](C)NC(=O)[C@@H](N)CCSC)C(=O)N[C@@H](CCCNC(N)=O)C(=O)N[C@@H](CC(C)C)C(=O)N[C@@H](CC(C)C)C(=O)N1CCC[C@H]1C(=O)N[C@@H](CC(C)C)C(=O)O (H-MALWM[Cit]LLPL-OH) | – | IC50: 262 nM
CSCC[C@H](N)C(=O)N[C@@H](CCCNC(N)=O)C(=O)N[C@@H](CC(C)C)C(=O)N[C@@H](CC(C)C)C(=O)N1CCC[C@H]1C(=O)N[C@@H](CC(C)C)C(=O)N[C@@H](CC(C)C)C(=O)N[C@@H](C)C(=O)N[C@@H](CC(C)C)C(=O)N[C@@H](CC(C)C)C(=O)O (H-M[Cit]LLPLLALL-OH) | – | IC50 [2]: 98 nM
CC(C)C[C@H](NC(=O)[C@H](CC(=O)O)NC(=O)[C@H](CCC(=O)O)NC(=O)[C@H](C)NC(=O)[C@H](CCC(=O)O)NC(=O)[C@H](CCCNC(N)=O)NC(=O)[C@H](CCCNC(N)=O)NC(=O)[C@@H](NC(=O)[C@H](CCCCN)NC(=O)[C@@H]1CCCN1)[C@@H](C)O)C(=O)O (H-PKT[Cit][Cit]EAEDL-OH; N-terminus and C-terminus assumed) | > 40000 | –
CC[C@H](C)[C@H](NC(=O)CNC(=O)[C@H](CCCNC(N)=O)NC(=O)[C@H](CCCCN)NC(=O)[C@@H](N)CCC(N)=O)C(=O)N[C@H](C(=O)N[C@@H](CCC(=O)O)C(=O)N[C@@H](CCC(N)=O)C(=O)N[C@@H](CS)C(=O)O)C(C)C (H-QK[Cit]GIVEQC-OH; N-terminus and C-terminus assumed) | > 40000 | –
CC[C@H](C)[C@H](NC(=O)CNC(=O)[C@H](CCCNC(N)=O)NC(=O)[C@H](CCCCN)NC(=O)[C@H](CCC(N)=O)NC(=O)[C@H](CC(C)C)NC(=O)[C@@H](N)CO)C(=O)N[C@H](C(=O)N[C@@H](CCC(=O)O)C(=O)N[C@@H](CCC(N)=O)C(=O)O)C(C)C (H-SLQK[Cit]GIVEQ-OH; N-terminus and C-terminus assumed) | > 40000 | –
C[C@H](NC(=O)[C@H](CCC(=O)O)NC(=O)[C@H](CCCNC(N)=O)NC(=O)[C@H](CCCNC(N)=O)NC(=O)[C@@H](NC(=O)[C@H](CCCCN)NC(=O)[C@@H]1CCCN1C(=O)[C@@H](N)[C@@H](C)O)[C@@H](C)O)C(=O)N[C@@H](CCC(=O)O)C(=O)O (H-TPKT[Cit][Cit]EAE-OH; N-terminus and C-terminus assumed) | > 40000 | –
CC(C)C[C@H](NC(=O)[C@H](CC(=O)O)NC(=O)[C@H](CCC(=O)O)NC(=O)[C@H](C)NC(=O)[C@H](CCC(=O)O)NC(=O)[C@H](CCCNC(N)=O)NC(=O)[C@H](CCCNC(N)=O)NC(=O)[C@@H](N)[C@@H](C)O)C(=O)N[C@@H](CCC(N)=O)C(=O)O (H-T[Cit][Cit]EAEDLQ-OH; N-terminus and C-terminus assumed) | > 40000 | –
CC(C)C[C@H](NC(=O)[C@H](CC(=O)O)NC(=O)[C@H](CCC(=O)O)NC(=O)[C@H](C)NC(=O)[C@H](CCC(=O)O)NC(=O)[C@H](CCCNC(N)=O)NC(=O)[C@H](CCCNC(N)=O)NC(=O)[C@@H](N)[C@@H](C)O)C(=O)N[C@@H](CCC(N)=O)C(=O)N[C@H](C(=O)O)C(C)C (H-T[Cit][Cit]EAEDLQV-OH) | – | IC50 [2]: 30200 nM
CC(C)[C@H](N)C(=O)N[C@@H](CS)C(=O)NCC(=O)N[C@@H](CCC(=O)O)C(=O)N[C@@H](CCCNC(N)=O)C(=O)NCC(=O)N[C@@H](Cc1ccccc1)C(=O)N[C@@H](Cc1ccccc1)C(=O)N[C@@H](Cc1ccc(O)cc1)C(=O)O (H-VCGE[Cit]GFFY-OH) | – | IC50 [2]: 33500 nM
CC(C)[C@H](N)C(=O)N[C@@H](CS)C(=O)NCC(=O)N[C@@H](CCC(=O)O)C(=O)N[C@@H](CCCNC(N)=O)C(=O)NCC(=O)N[C@@H](Cc1ccccc1)C(=O)N[C@@H](Cc1ccccc1)C(=O)N[C@@H](Cc1ccc(O)cc1)C(=O)N[C@H](C(=O)O)[C@@H](C)O (H-VCGE[Cit]GFFYT-OH; N-terminus and C-terminus assumed) | > 40000 | –
CSCC[C@H](NC(=O)[C@@H](N)Cc1c[nH]c2ccccc12)C(=O)N[C@@H](CCCNC(N)=O)C(=O)N[C@@H](CC(C)C)C(=O)N[C@@H](CC(C)C)C(=O)N1CCC[C@H]1C(=O)N[C@@H](CC(C)C)C(=O)N[C@@H](CC(C)C)C(=O)N[C@@H](C)C(=O)O (H-WM[Cit]LLPLLA-OH) | – | IC50: 1010 nM
CC(C)C[C@H](NC(=O)[C@@H](N)Cc1ccc(O)cc1)C(=O)N[C@H](C(=O)N[C@@H](CS)C(=O)NCC(=O)N[C@@H](CCC(=O)O)C(=O)N[C@@H](CCCNC(N)=O)C(=O)NCC(=O)N[C@@H](Cc1ccccc1)C(=O)O)C(C)C (H-YLVCGE[Cit]GF-OH) | – | IC50 [2]: 11400 nM
CC(C)C[C@H](NC(=O)[C@@H](N)Cc1ccc(O)cc1)C(=O)N[C@H](C(=O)N[C@@H](CS)C(=O)NCC(=O)N[C@@H](CCC(=O)O)C(=O)N[C@@H](CCCNC(N)=O)C(=O)NCC(=O)N[C@@H](Cc1ccccc1)C(=O)N[C@@H](Cc1ccccc1)C(=O)O)C(C)C (H-YLVCGE[Cit]GFF-OH) | – | IC50 [2]: 2620 nM
C[C@H](NC(=O)[C@H](CCC(=O)O)NC(=O)[C@H](CCCNC(N)=O)NC(=O)[C@H](CCCNC(N)=O)NC(=O)[C@@H](NC(=O)[C@H](CCCCN)NC(=O)[C@@H]1CCCN1C(=O)[C@@H](NC(=O)[C@@H](N)Cc1ccc(O)cc1)[C@@H](C)O)[C@@H](C)O)C(=O)O (H-YTPKT[Cit][Cit]EA-OH) | – | IC50 [2]: 34700 nM
C[C@H](NC(=O)[C@H](CCC(=O)O)NC(=O)[C@H](CCCNC(N)=O)NC(=O)[C@H](CCCNC(N)=O)NC(=O)[C@@H](NC(=O)[C@H](CCCCN)NC(=O)[C@@H]1CCCN1C(=O)[C@@H](NC(=O)[C@@H](N)Cc1ccc(O)cc1)[C@@H](C)O)[C@@H](C)O)C(=O)N[C@@H](CCC(=O)O)C(=O)O (H-YTPKT[Cit][Cit]EAE-OH; N-terminus and C-terminus assumed) | > 40000 | –
